{"source": "patent US7279172B2", "about": "“Treatment of autoimmune conditions with copolymer 1 and related copolymers” (priority 1998, dated 2007)", "key": {"mice": {"test_system": "mice", "test": "Toxicity test in mice (i.v. injection, 48 hour observation)", "assay_type": "in vivo", "protocol": "Three batches of copolymer-1 having an average molecular weight of 7.3 and 8.4 KDa (less than 2.5% copolymer-1 species over 40KDa) and 22KDa (more than 5% copolymer-1 species over 40KDa) were subjected to the toxicity test described below. Five mice were used in each experimental group.\nCopolymer-1 is dissolved in distilled water to yield a solution of 2 mg/ml of the active ingredient. Each mouse is injected with 0.5 ml of the test solution into the lateral tail vein. […] Observations were recorded 10 minutes, 24 hours and 48 hours post-injection. If, at the end of 48 hours, all the animals were alive and no adverse signs had been observed, then the batch is designated “non-toxic”. If, however, one or more of the mice had died or had shown adverse signs, then the batch is designated “toxic”."}, "[1]": {"test_system": "Rat Basophilic Leukemia cells (RBL-2Ho)", "test": "In vitro Rat Basophilic Leukemia cell degranulation test ([3H]-serotonin release)", "assay_type": "cell-based", "conditions": "100 μg", "description": "Histamine (or serotonin) release from basophile is an in vitro model for immediate hypersensitivity. The Rat Basophilic Leukemia cell line, RBL-2Ho, is uniform and easy to maintain in culture but is a highly sensitive and reproducible system for testing for degranulation. E. L. Basumian, et al., 11 EUR. J. IMMUNOL. 317 (1981). The physiological stimulus for histamine release involves binding of the antigen to membrane-bound IgE molecules, which triggers an intricate biochemical cascade. Degranulation is induced by non-IgE-mediated stimuli, including various peptides and synthetic polymers, e.g. polylysine. R. P. Siraganian, TRENDS IN PHARM[…] 432 (October 1983). The RBL degranulation test is, therefore, used to screen out those batches of COP-1 which evoke substantial degranulation and thus might elicit undesirable local and/or systemic side effects.\nRat Basophilic Leukemia cells (RBL-2Ho), are loaded with [H^3]-serotonin, followed by incubation with 100 μg of the COP-1 to be tested. Batches of COP-1 which induce non-specific degranulation, release [H^3]-serotonin into the medium. The radioactivity in the medium is counted by a scintillation counter and the total radiolabeled serotonin incorporated into the cells is determined in the pelleted cells. Percent degranulation is calculated as the percentage of serotonin released out of the total incorporated."}, "[2]": {"test_system": "experimental allergic encephalomyelitis (EAE)", "test": "EAE suppression by injection with incomplete adjuvant", "assay_type": "in vivo, (SJL/J×BALB/c)FI mice"}, "HLA-DR1 [3]": {"biological_target": "T1, HLA-DR1 (Homo sapiens, UniProt P01903+P01911, A100R/D57E/F55L/F60I/F76Y/I96L/L162R/M171V/P40L/Q125E/R42F/V115G/Y59C)", "test": "Competitive inhibition of biotinylated Copolymer 1 binding to HLA-DR1"}, "HLA-DR2 [4]": {"biological_target": "T2, HLA-DR2 (Homo sapiens, UniProt P01903+P01911)", "test": "Competitive inhibition of biotinylated Copolymer 1 binding to HLA-DR2", "conditions": "vs 1.5 μM biotinylated Copolymer 1, pH 5.0, 40 hr 37° C."}, "HLA-DR4 [5]": {"biological_target": "T3, HLA-DR4 (Homo sapiens, UniProt P01903+P01911, A100K/A169T/F76Y/I96L/K127E/L162R/M171V/N62H/P40V/Q125Y/R42H/S133A/S149N/S66Y/V115G/V209L/W38E)", "test": "Competitive inhibition of biotinylated Copolymer 1 binding to HLA-DR4"}, "[6]": {"test_system": "T cells specific for the MBP 84-102 antigen", "test": "Inhibition of MBP-induced T cell proliferation", "assay_type": "cell-based, mouse, human"}, "WCB AB line": {"test_system": "WCB AB line", "test": "IL-2 secretion from WCB AB line", "conditions": "for % Inhibition of IL-2 secretion: 2μM p259"}, "[7]": {"test_system": "experimental allergic encephalomyelitis (EAE)", "test": "EAE suppression by oral administration", "conditions": "Lewis rats fed 5 mg/kg; mean maximal score for the entire group, 0-5 scale"}, "HLA-DR1 [8]": {"biological_target": "T1, HLA-DR1", "test": "Binding of biotinylated polypeptides to purified HLA-DR1"}, "HLA-DR2 [9]": {"biological_target": "T2, HLA-DR2", "test": "Binding of biotinylated polypeptides to purified HLA-DR2"}, "HLA-DR4 [10]": {"biological_target": "T3, HLA-DR4", "test": "Binding of biotinylated polypeptides to purified HLA-DR4"}, "mouse spleen macrophages": {"test_system": "mouse spleen macrophages", "test": "Binding of biotinylated polypeptides to living antigen presenting cells (FACS), mouse", "conditions": "50 μg biotinylated polypeptide, 37° C. for 20 hr"}, "[11]": {"test_system": "human EBV transformed B-cell line", "test": "Binding of biotinylated polypeptides to living antigen presenting cells (FACS), human", "conditions": "50 μg biotinylated polypeptide, 37° C. for 20 hr; DR7,w11 haplotype"}, "[12]": {"conditions": "mice, 10 mg/mouse subcutaneously in ICFA, EAE induced 3 weeks later"}, "[13]": {"conditions": "vs 1.5 μM biotinylated Copolymer 1, pH 5.0, 40 hr 37° C."}}, "note": "Entries after “also recorded” stand apart in the source; their conditions may differ."}
{"substance": "Copolymer 1 [reference compound]", "values": [{"measurement": "batch designation toxic / non-toxic", "setting": "mice; Copolymer 1 batch of 7.3 KDa average molecular weight", "value": "non-toxic"}, {"measurement": "batch designation toxic / non-toxic", "setting": "mice; Copolymer 1 batch of 8.4 KDa average molecular weight", "value": "non-toxic"}, {"measurement": "batch designation toxic / non-toxic", "setting": "mice; Copolymer 1 batch of 22 kDa average molecular weight", "value": "toxic"}, {"measurement": "mice died after 48 hours", "setting": "mice; Copolymer 1 batch of 22 kDa average molecular weight, 0.5 ml of 2 mg/ml into lateral tail vein, five mice", "value": "Three of five"}, {"measurement": "% Serotonin Release", "setting": "[1]; Copolymer 1 batch Average M.W. 6,250, <2.5% species over 40 KDa", "value": 12.4, "unit": "%"}, {"measurement": "% Serotonin Release", "setting": "[1]; Copolymer 1 batch Average M.W. 7,300, <2.5% species over 40 KDa", "value": 21.0, "unit": "%"}, {"measurement": "% Serotonin Release", "setting": "[1]; Copolymer 1 batch Average M.W. 13,000, >5% species over 40 KDa", "value": 66.9, "unit": "%"}, {"measurement": "% Serotonin Release", "setting": "[1]; Copolymer 1 batch Average M.W. 14,500, >5% species over 40 KDa", "value": 67.8, "unit": "%"}, {"measurement": "EAE suppression (in words)", "setting": "[2]; injection in ICFA prior to induction of EAE", "value": "greatest EAE suppression"}, {"measurement": "Incidence", "setting": "[2]; [12]", "value": "2/11"}, {"measurement": "Suppression % Incidence", "setting": "[2]; [12]", "value": 82.0, "unit": "%"}, {"measurement": "Suppression % MMS", "setting": "[2]; [12]", "value": 89.0, "unit": "%"}, {"measurement": "MMS (Mean Maximal Score)", "setting": "[2]; mice, 10 mg/mouse subcutaneously in ICFA, EAE induced 3 weeks later, 0-5 scale", "value": 0.45}, {"measurement": "inhibition of binding of biotinylated Copolymer 1 to HLA-DR1 (in words)", "setting": "HLA-DR1 [3]; unlabeled inhibitor", "value": "efficiently inhibited"}, {"measurement": "IC50", "setting": "HLA-DR1 [3]; [13]", "value": 8.8, "unit": "µM"}, {"measurement": "IC50", "setting": "HLA-DR2 [4]", "value": 10.1, "unit": "µM"}, {"measurement": "inhibition of binding of biotinylated Copolymer 1 to HLA-DR4 (in words)", "setting": "HLA-DR4 [5]; unlabeled inhibitor", "value": "efficiently inhibited"}, {"measurement": "IC50", "setting": "HLA-DR4 [5]; [13]", "value": 10.8, "unit": "µM"}, {"measurement": "inhibition of proliferation of T cells exposed to MBP 84-102 antigen (in words)", "setting": "[6]; polypeptide added with stimulating MBP antigen", "value": "significantly inhibited the proliferation"}, {"measurement": "stimulation of proliferation of T cells specific for the 84-102 peptide of MBP (in words)", "setting": "[6]; polypeptide as antigen", "value": "did not stimulate proliferation"}, {"measurement": "% Inhibition of IL-2 secretion", "setting": "WCB AB line; Cop1 20 μM", "value": 73, "unit": "%"}, {"measurement": "% Inhibition of IL-2 secretion", "setting": "WCB AB line; Cop1 60 μM", "value": 88, "unit": "%"}, {"measurement": "% Inhibition of IL-2 secretion", "setting": "WCB AB line; Cop1 100 μM", "value": "about 91%"}, {"measurement": "% Inhibition of IL-2 secretion", "setting": "WCB AB line; Cop1 100 μM, listed as Cop1", "value": 91, "unit": "%"}, {"measurement": "inhibition of p259-induced T cell secretion of IL-2 (in words)", "setting": "WCB AB line; Copolymer 1 incubated with the p259 peptide", "value": "inhibited in a dose-related fashion"}, {"measurement": "MMS ± SD", "setting": "[7]", "value": "0.78 ± 0.45"}, {"measurement": "binding to HLA-DR1, comparison / order of binding capacity (in words)", "setting": "HLA-DR1 [8]; detergent-soluble HLA-DR1", "value": "better than that of GAL, TGA or GTL; also recorded: Copolymer 1>TAL>GTL>TGA>>GAL"}, {"measurement": "Kd", "setting": "HLA-DR1 [8]; read-out: Kd DR1, detergent-soluble HLA-DR1, pH 5.0, 40 hr 37° C., from slope of double reciprocal plot", "value": 0.074, "unit": "µM"}, {"measurement": "binding to HLA-DR2, comparison / order of binding capacity (in words)", "setting": "HLA-DR2 [9]; detergent-soluble HLA-DR2", "value": "bound better than the other polypeptides; also recorded: Copolymer 1>GTL>TAL>GAL>TGA"}, {"measurement": "Kd", "setting": "HLA-DR2 [9]; read-out: Kd DR2, detergent-soluble HLA-DR2, pH 5.0, 40 hr 37° C., from slope of double reciprocal plot", "value": 0.082, "unit": "µM"}, {"measurement": "binding to HLA-DR4, comparison / order of binding capacity (in words)", "setting": "HLA-DR4 [10]; detergent-soluble HLA-DR4", "value": "better than that of GAL, TGA or GTL; also recorded: TAL>Copolymer 1>>TGA>GTL>GAL"}, {"measurement": "Kd", "setting": "HLA-DR4 [10]; read-out: Kd DR4, detergent-soluble HLA-DR4, pH 5.0, 40 hr 37° C., from slope of double reciprocal plot", "value": 0.015, "unit": "µM"}, {"measurement": "% Binding", "setting": "mouse spleen macrophages", "value": 85, "unit": "%"}, {"measurement": "MFI (Mean Fluorescence Intensity)", "setting": "mouse spleen macrophages", "value": 493}, {"measurement": "% Binding", "setting": "[11]", "value": 96, "unit": "%"}, {"measurement": "MFI (Mean Fluorescence Intensity)", "setting": "[11]", "value": 727}]}
